Source: patent publication US10562854B2, “Prolyl hydroxylase inhibitors” (Aerpio Therapeutics, Inc., priority 2009, dated 2020)
Structures can show the parent of a compound that is named as a salt. Where two headings read alike, the source gives them in different places.

Experiments:
VEGF = VEGF ELISA Assay in HEK293 cells; assay type: cell-based; details: Homo sapiens
Protocol: HEK293 cells are seeded in 96-well poly-lysine coated plates at 20,000 cells per well in DMEM (10% FBS, 1% NEAA, 0.1% glutamine). Following overnight incubation, the cells are washed with 100 μL of Opti-MEM (Gibco, Carlsbad, Calif.) to remove serum. Compound in DMSO is serially diluted (beginning with 100 μM) in Opti-MEM and added to the cells. The conditioned media is analyzed for VEGF with a Quantikine human VEGF immunoassay kit (R&D Systems, Minneapolis, Minn.). Optical density measurements at 450 nm are recorded using the Spectra Max 250 (Molecular Devices, Sunnyvale, Calif.). Data defined as % of DFO stimulation is used to calculate EC50 values with GraphPad Prism 4 software (San Diego, Calif.).

[1] = Solubility of salts in distilled deionized water (HPLC); assay type: physicochemical
Protocol: The formulator can determine the solubility of the pharmaceutically acceptable salts of the disclosed inhibitors by any method desirable. The following is a non-limiting example of a procedure for evaluating the solubility of a salt of a disclosed inhibitor. A suspension of tert-butyl-{[1-(4-chlorobenzyl)-3-hydroxy-2-oxo-1,2-dihydropyridin-4-yl]methyl}-piperazine-1-carboxylate methanesulfonate (26.6 mg) in distilled deionized water (3.0 mL) is sonicated for 20 min with water bath temperature under 25° C. The suspension is filtered to remove any insoluble salt. The clear filtrate solution (200 μL) is diluted with distilled deionized water (800 μL) and subjected to HPLC analysis. The following are results for the pharmaceutically acceptable salts outlined in Table VII above.

S. aureus = details: murine model of S. aureus skin infection; cited from earlier work
Staphylococcus aureus = details: dose-dependent; cited from earlier work
[2] = system: phosphoglycerate kinase (PGK) expression; assay: PGK expression in murine embryonic fibroblasts; assay type: cell-based; details: wild type murine embryonic fibroblasts, 1 μM and 10 μM (FIG. 12)
Protocol: FIG. 11 depicts the up regulation of phosphoglycerate kinase (PGK) expression in wild type murine embryonic fibroblasts as a result of treatment with compound a compound disclosed in Table VIII at dosages of 1 μM (E), 10 μM (F), and 50 μM (G) vs. wild type control (H) and the lack of up regulation of PGK expression in HIF-1 knock out cells as a result of treatment with a compound disclosed in Table VIII at dosages of 1 μM (A), 10 μM (B), and 50 μM (C) and HIF-1 knock out control (D). Both cell types were treated for 7 hours.

EPO = assay: Mouse Serum EPO Assay; assay type: in vivo
Protocol: All animal work is conducted in accordance with the Guide for the Care and Use of Laboratory Animals (National Academy of Sciences; Copyright © 1996). Used in these experiments were 9-10 week old male C57Bl/6 mice from Charles River Laboratory (Portage, Mich.). The mice are orally dosed with vehicle (aqueous carbonate buffer, 50 mM; pH 9.0) or with the compound to be tested in vehicle at 50 mg/kg or 100 mg/kg. The animals are dosed three times: day 1 at 8 AM and 5 PM, and on day 2 at 8 AM. One hour after the first dose, unilateral arterial ligation is performed under anesthesia using isoflurane. The femoral artery is ligated proximal to the origin of the popliteal artery. The contralateral limb undergoes a sham surgical procedure. Ligation is performed in an alternating fashion between right and left hindlimbs. Two hours after the 8 AM dosing on day 2, blood is obtained by ventricular stick while the mice are anesthetized with isoflurane. Serum samples for EPO analysis are obtained using gel clot serum separation tubes. Heart, liver, and gastrocnemius muscles are harvested, snap-frozen in liquid nitrogen, and stored in −80° C. until use.
The mouse serum EPO is detected using Mouse Quantikine Erythropoietin ELISA kit from R&D Systems according to manufacturer's instructions.

[3] = HEK293 cells, head prints IC50, method calculates EC50 from % of DFO stimulation, read-out: VEGF IC50

SMILES	IC50 (VEGF; [3])	also measured
CSCCNCc1ccn(Cc2ccccc2)c(=O)c1O [Compound C33, 1-benzyl-3-hydroxy-4-{[2-(methylthio)ethylamino]methyl}pyridin-2(1H)-one]	53 µM	–
CC(C)(C)OC(=O)N1CCN(Cc2ccn(Cc3ccc(Cl)cc3)c(=O)c2O)CC1 [Compound A41, tert-butyl 4-{[1-(4-chlorobenzyl)-3-hydroxy-2-oxo-1,2-dihydropyridin-4-yl]methyl}piperazine-1-carboxylate]	–	IC50 (VEGF; HEK293, read-out: VEGF IC50 (μM)): 16.6 µM; Solubility ([1]; distilled deionized water, sonicated 20 min, under 25° C., listed as Free base): ~1 µg/mL
NC(Cn1ccc(=O)c(O)c1)C(=O)O (centres unmarked) [mimosine]	–	lesion size (S. aureus): reduce the lesion size; capacity of human phagocytes and whole blood to kill Staphylococcus aureus (Staphylococcus aureus): boost
O=c1c(O)c(CN2CCN(c3ccc(Cl)nn3)CC2)ccn1Cc1ccccc1 [Compound B14, 1-benzyl-3-hydroxy-4-{[4-(6-chloropyridazin-3-yl)piperazin-1-yl]methyl}pyridin-2(1H)-one]	78 µM	–
CC1CCC(NCc2ccn(Cc3ccccc3)c(=O)c2O)CC1 (centres unmarked) [Compound C17, 1-benzyl-3-hydroxy-4-[(4-methylcyclohexylamino)methyl]pyridin-2(1H)-one]	27.4 µM	–
COc1ccccc1Cn1ccc(CN2CCCCCC2)c(O)c1=O [Compound A18, 1-(2-methoxybenzyl)-3-hydroxy-4-(azepan-1-ylmethyl)pyridin-2(1H)-one]	29.2 µM	–
COC[C@H]1CCCN1Cc1ccn(Cc2ccccc2)c(=O)c1O [Compound B5, (R)-1-benzyl-3-hydroxy-4-{[2-(methoxymethyl)pyrrolidin-1-yl]methyl}pyridin-2(1H)-one]	53 µM	–
O=c1c(O)cccn1Cc1cccc(Cl)c1 [Compound F2, 1-(3-chlorobenzyl)-3-hydroxypyridin-2(1H)-one]	> 100 µM	PGK expression [2]: up regulation; EC50 (EPO): 14 µM
O=C1NCCCCC1NCc1ccn(Cc2ccccc2)c(=O)c1O (centres unmarked) [Compound C19, 3-[(1-benzyl-3-hydroxy-2-oxo-1,2-dihydropyridin-4-yl)methylamino]azepan-2-one]	62.9 µM	–
CC(C)(C)OC(=O)N1CCN(Cc2ccn(Cc3ccc(Cl)cc3)c(=O)c2O)CC1 [p-toluenesulfonate, tert-butyl-{[1-(4-chlorobenzyl)-3-hydroxy-2-oxo-1,2-dihydropyridin-4-yl]methyl}-piperazine-1-carboxylate]	–	Solubility [1]: 2300 µg/mL
Cc1ccc(S(=O)(=O)n2ccc(CN3CCC(N4CCCCC4)CC3)c(O)c2=O)cc1 [Compound D10, 1-[(4-methylphenyl)sulfonyl]-3-hydroxy-4-(1,4′-bipiperidin-1′-ylmethyl)pyridin-2(1H)-one]	27 µM	–
Cc1ccc(S(=O)(=O)n2ccc(CN3CCN(c4ccc(Cl)nn4)CC3)c(O)c2=O)cc1 [Compound D14, 1-[(4-methylphenyl)sulfonyl]-3-hydroxy-4-{[4-(6-chloropyridazin-3-yl)piperazin-1-yl]methyl}pyridin-2(1H)-one]	19 µM	–
CC(C)(C)OC(=O)N1CCN(Cc2ccn(Cc3ccc(Cl)cc3)c(=O)c2O)CC1 [hydrochloride, tert-butyl-{[1-(4-chlorobenzyl)-3-hydroxy-2-oxo-1,2-dihydropyridin-4-yl]methyl}-piperazine-1-carboxylate]	–	Solubility [1]: 5900 µg/mL
O=c1c(O)cccn1Cc1ccc(Cl)cc1 [Compound F3, 1-(4-chlorobenzyl)-3-hydroxypyridin-2(1H)-one]	7.4 µM	–
O=c1c(O)c(CNCc2ccccc2)ccn1Cc1ccc(Cl)cc1 [Compound C1, 1-(4-chlorobenzyl)-3-hydroxy-4-[(4-benzylamino)methyl]pyridin-2(1H)-one]	42 µM	–
O=c1c(O)c(CN2CCN(Cc3ccccc3)CC2)ccn1Cc1ccccc1 [Compound B9, 1-benzyl-3-hydroxy-4-[(4-benzyipiperazin-1-yl)methyl]pyridin-2(1H)-one]	12.6 µM	–
